Experimental data as given in patent publication US20170239182A1, “PHARMACEUTICAL FORMULATIONS OF AND METHODS TO PREPARE CHELATING AGENTS FOR EFFICIENT METAL REMOVAL TREATMENT SYSTEMS” (ZONEONE PHARMA, INC., priority 2014, published 2017).
Where a name gives a salt, the structure may show the parent alone.

Assays:
[1] = Plasma PK of DFO after IV administration of liposomal DFO or Desferal to mice; type: in vivo, CF-1 female mice; conditions: 100 mg/kg
Description: Liposomes containing egg PC/Chol (3 mol/2 mol, LDFO-1), egg PC/DOPG/Chol (2.7 mol/0.3 mol/2 mol, LDFO-2), and HSPC/Chol (3 mol/2 mol, LDFO-4) containing 500 mM ammonium sulfate were prepared as in Example 1. DFO was remote loaded as in Example 20.
After loading the liposomes were purified by dialysis versus HBS pH 6.5. The liposomes were sterilized by filtration through 0.2 um PES filters and analyzed for drug and lipid content. The liposomal DFO were administered to CF-1 female mice at 100 mg/kg (n=3) and at various times the animals were sacrificed and blood taken.
After processing to plasma, DFO was extracted from plasma by mixing with 6 volumes of methanol containing 0.1% trifluoroacetic acid in an epppendorf tube. The mixtures were vortexed twice for 10 seconds then placed at −80° C. for 1 h. The samples were thawed and centrifuged for 12,000 rpm for 10 min at 4° C. and the supernatant analyzed for DFO by HPLC as described herein. […] By comparison DFO was undetectable beyond 1 h after dosing with Desferal®.

[2] = system: Iron Overloaded Mouse Model; experiment: Liver iron removal from iron overloaded mouse model (ferrozine assay); type: in vivo, mice; conditions: IV 100 mg/kg chelator on day 7 and day 10 after iron-dextran 100 mg/kg Fe
Description: LDFO formulations were prepared as described in Example 1. Both formulations were composed of HSPC/cholesterol (3/0.5 (mol/mol)). One formulation was prepared using 250 mM ammonium sulfate (LDFO-AS) as the trapping agent and the second formulation was prepared using 250 mM ascorbate phosphate (LDFO-AP) as the trapping agent and all other components and DFO loading procedures of the formulations were identical. Mice were overloaded with a single IV injection of iron-dextran at 100 mg/kg Fe. Overloaded mice were treated with each formulation IV at 100 mg/kg chelator on day 7 and day 10. The mice were sacrificed after the second treatment and the livers were analyzed for iron content using a ferrozine assay (Riemer et al. 2004)

Row | Structure (SMILES) | DFO in plasma ([1]; beyond 1 h after dosing) | initial dose (ID) of DFO retained in the plasma ([1]; IV, 24 h) | mean liver iron content [2] [mg/kg]
1 | CC(=O)N(O)CCCCCNC(=O)CCC(=O)N(O)CCCCCNC(=O)CCC(=O)N(O)CCCCCN [Desferal, deferoxamine mesylate] | undetectable | undetectable | –
2 | CC(=O)N(O)CCCCCNC(=O)CCC(=O)N(O)CCCCCNC(=O)CCC(=O)N(O)CCCCCN [free DFO, Deferoxamine] | – | – | 229
